Experimental data: ChEMBL document CHEMBL1143901, “Lead identification of 2-iminobenzimidazole antagonists of the chemokine receptor CXCR3” (Bioorg Med Chem Lett, 2008)
pIC50: −log10 of the molar value.

How the values were obtained:
[1] = molecular target: T1, C-X-C chemokine receptor type 3 (Homo sapiens, UniProt P49682); experiment: Displacement of [125I]-CXCL10 from human CXCR3 expressed in CHO cell membrane; type: cell membranes
T1 sequence (P49682 whole entry): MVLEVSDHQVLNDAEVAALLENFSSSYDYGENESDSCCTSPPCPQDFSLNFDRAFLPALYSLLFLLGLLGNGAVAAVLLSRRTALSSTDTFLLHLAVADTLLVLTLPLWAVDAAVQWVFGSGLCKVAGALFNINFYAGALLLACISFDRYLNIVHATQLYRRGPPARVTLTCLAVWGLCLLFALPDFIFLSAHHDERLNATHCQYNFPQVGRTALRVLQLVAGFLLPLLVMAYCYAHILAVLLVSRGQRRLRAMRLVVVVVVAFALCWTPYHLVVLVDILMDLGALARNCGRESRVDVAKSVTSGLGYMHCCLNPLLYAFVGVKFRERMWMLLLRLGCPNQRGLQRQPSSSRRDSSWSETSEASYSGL

[2] = molecular target: T1, C-X-C chemokine receptor type 3; experiment: Antagonist activity at human CXCR3 expressed in CHO cell […] assessed as inhibition of calcium flux by FLIPR; type: functional, cell-based
[3] = molecular target: T2, C-X-C chemokine receptor type 3 (Mus musculus, UniProt O88410); experiment: Displacement of [125I]-CXCL10 from mouse CXCR3 expressed in CHO cell membrane; type: cell membranes
T2 sequence (O88410 whole entry): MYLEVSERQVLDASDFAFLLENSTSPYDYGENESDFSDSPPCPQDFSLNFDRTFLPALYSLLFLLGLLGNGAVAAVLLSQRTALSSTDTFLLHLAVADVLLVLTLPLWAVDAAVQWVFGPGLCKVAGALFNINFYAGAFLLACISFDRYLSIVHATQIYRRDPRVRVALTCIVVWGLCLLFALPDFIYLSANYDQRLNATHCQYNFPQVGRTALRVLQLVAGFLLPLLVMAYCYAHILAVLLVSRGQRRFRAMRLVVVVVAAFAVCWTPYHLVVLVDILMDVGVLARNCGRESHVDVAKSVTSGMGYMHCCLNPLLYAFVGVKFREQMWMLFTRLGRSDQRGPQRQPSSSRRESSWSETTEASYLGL

[4] = Metabolic stability in mouse liver microsomes assessed as half life; type: ADME, Microsome

| Compound | pIC50 [1] | pIC50 [2] | pIC50 [3] | half-life [4] [min] |
| --- | --- | --- | --- | --- |
| CN(CCCn1c(=N)n(CC(=O)c2ccc(Cl)cc2)c2cccc(Cl)c21)C(=O)Cc1ccccc1 | 6.52 | 7.15 | 5.85 |  |
| CN(CCCn1c(=N)n(CC(=O)c2ccc(Cl)cc2)c2cccc(Cl)c21)C(=O)c1ccccn1 | 7.52 | 7.70 | 6.70 |  |
| CN(CCCn1c(=N)n(CC(=O)c2ccc(Cl)cc2)c2cccc(Cl)c21)C(=O)c1ccc2ccccc2c1 | 7.82 | 7.40 | 6.30 | 9.5 |
| CCc1cccc2c1n(CCCN(C)C(=O)Cc1ccccc1)c(=N)n2CC(=O)c1ccc(Cl)cc1 | 6.70 | 7.00 | 5.74 |  |
| CN(CCCCn1c(=N)n(CC(=O)c2ccc(Cl)cc2)c2cccc(Cl)c21)C(=O)Cc1ccccc1 | 6.40 | 6.40 |  |  |
| N=c1n(CC(=O)c2ccc(Cl)cc2)c2cccc(Cl)c2n1C[C@@H]1CCCN(C(=O)c2cccc3cccnc23)C1 | 7.82 | 7.70 | 7.22 |  |
| CN(CCn1c(=N)n(CC(=O)c2ccc(Cl)cc2)c2cccc(Cl)c21)C(=O)Cc1ccccc1 | 6.40 | 6.52 | 5.82 |  |
| CC(=O)N(C)CCn1c(=N)n(CC(=O)c2ccc(Cl)cc2)c2ccccc21 | 5.89 | 5.47 |  |  |
| CN(CCn1c(=N)n(CC(=O)c2ccc(Cl)cc2)c2ccccc21)C(=O)C1CCCCC1 | 6.30 | 6.05 |  |  |
| CN(CCn1c(=N)n(CC(=O)c2ccc(Cl)cc2)c2ccccc21)C(=O)Cc1ccccc1 | 6.40 | 6.10 |  |  |
| N=c1n(CC(=O)c2ccc(Cl)cc2)c2cccc(Cl)c2n1CC[C@@H]1CCCN1C(=O)c1cccc2cccnc12 | 8.10 | 7.70 | 7.40 | 7.5 |
| N=c1n(CC(=O)c2ccc(Cl)cc2)c2cccc(Cl)c2n1C[C@H]1CCCN(C(=O)c2cccc3cccnc23)C1 | 7.80 | 7.70 | 7.15 |  |
| CN(Cc1ccccc1)C(=O)Cn1c(=N)n(CC(=O)c2ccc(Cl)cc2)c2ccccc21 | 5.66 |  |  |  |

Now from value to compound:

| pIC50 [1] | pIC50 [2] | pIC50 [3] | half-life [4] [min] | Compound |
| --- | --- | --- | --- | --- |
| 5.92 | 5.60 |  |  | CCOC(=O)CCn1c(=N)n(CC(=O)c2ccc(Cl)cc2)c2ccccc21 |
| 6.52 | 5.64 |  |  | CN(CCn1c(=N)n(CC(=O)c2ccc(Cl)cc2)c2ccccc21)C(=O)c1ccccc1 |
| 5.96 |  |  |  | CCCn1c(=N)n(CC(=O)c2ccc(Cl)cc2)c2ccccc21 |
| 6.15 |  |  |  | Cn1c(=N)n(CC(=O)c2ccc(Cl)cc2)c2ccccc21 |
| 7.82 | 7.70 | 7.10 |  | N=c1n(CC(=O)c2ccc(Cl)cc2)c2cccc(Cl)c2n1CC1CCCN(C(=O)c2cccc3cccnc23)C1 (centres undefined) |
| 7.30 | 7.70 | 6.82 | 5.4 | COc1ccccc1C(=O)N(C)CCCn1c(=N)n(CC(=O)c2ccc(Cl)cc2)c2cccc(Cl)c21 |
| 7.70 | 8.00 | 5.96 |  | N=c1n(CC(=O)c2ccc(Cl)cc2)c2cccc(Cl)c2n1CCCN(C(=O)c1cccc2cccnc12)C1CC1 |
| 6.22 | 6.40 |  |  | CN(CCCn1c(=N)n(CC(=O)c2ccc(Cl)cc2)c2cccc(Cl)c21)C(=O)C(C)(C)C |
| 6.52 | 7.70 | 6.10 |  | CN(CCCn1c(=N)n(CC(=O)c2ccc(Cl)cc2)c2cccc(Cl)c21)C(=O)c1ccccc1 |
| 6.40 | 6.70 |  |  | CN(Cc1ccccc1)C(=O)CCn1c(=N)n(CC(=O)c2ccc(Cl)cc2)c2ccccc21 |
| 7.70 | 7.70 | 7.30 | 15 | CN(CCCn1c(=N)n(CC(=O)c2ccc(Cl)cc2)c2cccc(Cl)c21)C(=O)c1cccc2cccnc12 |
| 6.15 | 5.46 |  |  | CCn1c(=N)n(CC(=O)c2ccc(Cl)cc2)c2ccccc21 |
